The values that follow are results of earlier work, collected in the CATMoS acute toxicity set (Mansouri et al. 2021).

Each structure is given as a SMILES string. Several values for one entry are separate records, joined by “and”; a condition that tells them apart may be missing. Identical values can stand only once.

A short description of this data set: rat acute oral toxicity. Conditions: in vivo.
For orientation: LD50 means the dose expected to kill half of the subjects tested. As for `CCCCCCCCCCCC(=O)O`, the median lethal dose (LD50) was 12000 mg/kg.

Regarding `CC(=O)Cl`, the LD50 was 910 mg/kg.

Consider `O=C(O)C(F)(F)C(F)(F)C(F)(F)C(F)F`, for which the 50% lethal dose (LD50) was 1760 mg/kg. Turning to `COP(=O)(OC)C(O)(C(F)F)C(F)F`, the LD50 is 9 mg/kg. As for `CC(N)CC(C)(C)N` (centres undefined), the LD50 was 431 mg/kg. Turning to `CCOP(=S)(OCC)Oc1ccccc1[N+](=O)[O-]`, the median lethal dose (LD50) is 25 mg/kg. For `COP(=S)(OC)SCSCCOC(N)=O`, the LD50 was 44 mg/kg. As for `COc1ccc2c(=O)c(C)c(-c3ccccc3)oc2c1CN(C)C`, the LD50 was 40 mg/kg and 14 mg/kg. Turning to `CCOC(C1=NCC(C)(C)CN1)c1cccc(Cl)c1` (centres undefined), the median lethal dose (LD50) was 95 mg/kg. Regarding `NCCCCN`, the median lethal dose (LD50) was 463 mg/kg. Consider `CCOc1ccc(Cl)cc1C(CN(C)C)C(C)CC` (centres undefined), for which the 50% lethal dose (LD50) was 632 mg/kg. Turning to `Cc1cccc(C)c1N(C(=O)CCl)C1CCOC1=O` (centres undefined), the 50% lethal dose (LD50) was 2600 mg/kg. Consider `CCOP(=O)(OCC)Oc1nc(Cl)c(Cl)cc1Cl`, for which the LD50 was 135 mg/kg. On to `CCN(CC)CCCNC(=O)C(C)(C)Oc1ccc(Cl)cc1`, for which the median lethal dose (LD50) is 150 mg/kg. For `Cc1ccc(OCC(O)CNC(C)(C)C)c2oc(=O)ccc12` (centres undefined), the 50% lethal dose (LD50) was 676 mg/kg. Take `Cc1c(Cl)c(Cl)c(Cl)c2[nH]c(C(F)(F)F)nc12`: the 50% lethal dose (LD50) is 6.49 mg/kg. In the case of `Cc1cc(Cl)ccc1OCC(=O)OCCCCCC(C)C`, the LD50 was 700 mg/kg. Consider `C1CCC2OCCOCCOC3CCCCC3OCCOCCOC2C1` (centres undefined), for which the LD50 was 176 mg/kg. On to `CCOC(C)CO` (centres undefined), for which the LD50 is 7110 mg/kg.

Regarding `c1ccc(N(c2ccccc2)c2ccccc2)cc1`, the LD50 was 3200 mg/kg. `C=CCc1ccc(OC=O)c(OC)c1`: the 50% lethal dose (LD50) is 3400 mg/kg. In the case of `O=C(O)c1ccc2c(c1)CCC(Cn1ccnc1)C2` (centres undefined), the median lethal dose (LD50) was 1990 mg/kg. As to `O=[N+]([O-])C=C1SCCN1Cc1ccccc1`, the LD50 was 1000 mg/kg.

`CC(=O)c1cccc2ccccc12`: the 50% lethal dose (LD50) is 1560 mg/kg. Regarding `CCOc1ccccc1N1CCN(CC=Cc2ccc3c(c2)CCC(=O)N3)CC1`, the LD50 is 500 mg/kg.

Regarding `CC(Cc1ccc2c(c1)OCO2)NCC(O)c1ccc(O)c(O)c1` (centres undefined), the 50% lethal dose (LD50) is 865 mg/kg. Consider `CCOC(=O)c1noc(C)c1C(=O)c1ccccc1`, for which the LD50 is 1000 mg/kg.

For the compound `C/C=C/C=C/C(=O)O`, the 50% lethal dose (LD50) is 7360 mg/kg and 4340 mg/kg and 7160 mg/kg. As for `CCCN(CCC)N=O`, the median lethal dose (LD50) is 480 mg/kg. For the compound `C=COCCOCCO`, the 50% lethal dose (LD50) was 4930 mg/kg.

Take `COc1c(Cl)ccc(Cl)c1C(=O)O`: the LD50 is 6760 mg/kg and 2630 mg/kg. On to `CCCCCCCCCCOS(=O)(=O)O`, for which the LD50 is 1950 mg/kg.

Regarding `CNC(=O)Oc1ccccc1C1OCC=CCO1`, the LD50 is 35 mg/kg.

As for `CCOP(=O)(OC=C(SCC)SCC)OCC`, the 50% lethal dose (LD50) was 15 mg/kg.

Consider `COC(=O)CC1CCCCC1`, for which the 50% lethal dose (LD50) is 2500 mg/kg.

`Nc1cc(N)cc(C(F)(F)F)c1`: the 50% lethal dose (LD50) is 380 mg/kg. Take `CS(=O)(=O)OCCCNCCCOS(C)(=O)=O`: the 50% lethal dose (LD50) is 108 mg/kg. Consider `O=NN1CCCCC1`, for which the 50% lethal dose (LD50) is 200 mg/kg.

As for `COP(=O)(OC)C(OC(=O)CCl)C(Cl)(Cl)Cl` (centres undefined), the LD50 was 344 mg/kg. With `C1CNCCNC1`, the 50% lethal dose (LD50) is 2830 mg/kg. As for `c1ccc2c(c1)OCO2`, the median lethal dose (LD50) was 580 mg/kg.

With `CC(C)(OO)c1ccccc1`, the LD50 is 382 mg/kg. `CCOC(N)=O`: the LD50 is 1810 mg/kg. Take `C=CCc1ccc(OC)cc1`: the LD50 is 1230 mg/kg. Consider `CCCOCCN(C(=O)CCl)c1c(CC)cccc1CC`, for which the LD50 is 2200 mg/kg.

With `Clc1ccc2c(c1)C(N1CCNCC1)=Nc1ccccc1O2`, the LD50 is 313 mg/kg.

Regarding `S=c1[nH]nc(NCNc2n[nH]c(=S)s2)s1`, the median lethal dose (LD50) was 4640 mg/kg.

In the case of `CCCCC(CC)(C(=O)OCC)C(=O)OCCN(CC)CC` (centres undefined), the 50% lethal dose (LD50) is 638 mg/kg. As for `C[N+]1(C)CCCCC1COC(=O)C(O)(c1ccccc1)c1ccccc1` (centres undefined), the LD50 was 5080 mg/kg. On to `Oc1cccc2cc3cccc(O)c3c(O)c12`, for which the 50% lethal dose (LD50) is 3220 mg/kg.

For `CC(C)(C)S`, the LD50 is 4730 mg/kg. In the case of `CC(C)(Oc1ccc(Cl)cc1)C(=O)OCCCOC(=O)C(C)(C)Oc1ccc(Cl)cc1`, the 50% lethal dose (LD50) is 7300 mg/kg. For the compound `CCCCCCCC[N+](CC)(CC)CCOC(=O)C(C1CCCC1)C1CCCC1`, the median lethal dose (LD50) was 1200 mg/kg. Regarding `CNS(=O)(=O)c1cc(OC)c(N)cc1C`, the median lethal dose (LD50) was 91.5 mg/kg.

With `CCOC(=O)Nc1ccc2c(c1)N(C(=O)CCN1CCN(CCO)CC1)c1ccccc1CC2`, the 50% lethal dose (LD50) was 147 mg/kg. For the compound `Nc1ccc(/N=N/c2ccc(-c3ccc(/N=N/c4c(S(=O)(=O)O)cc5cc(S(=O)(=O)O)c(/N=N/c6ccccc6)c(O)c5c4N)cc3)cc2)c(N)c1`, the LD50 is 7600 mg/kg.

For the compound `O=C(O)C(Cl)(Cl)CCl`, the 50% lethal dose (LD50) was 2460 mg/kg. On to `CCOc1ccccc1N1CCN(CCC=Cc2ccc3c(c2)CCC(=O)N3)CC1`, for which the median lethal dose (LD50) is 500 mg/kg. For `CCN(CC)C(=O)c1cc(=O)c2ccccc2o1`, the median lethal dose (LD50) is 4000 mg/kg. Take `c1ccc(CC2=NCCN2)cc1`: the median lethal dose (LD50) was 1200 mg/kg.

Turning to `CCOC(=O)C1CC(=O)C(=C(O)C2CC2)C(=O)C1` (centres undefined), the 50% lethal dose (LD50) was 4460 mg/kg. Take `CN(C)C(O)=Nc1ccc(-n2nc(C(C)(C)C)oc2=O)c(Cl)c1`: the LD50 was 1000 mg/kg. For `C1CC2OC2CC1C1CO1` (centres undefined), the LD50 is 2830 mg/kg. As for `O=P(OCC(Cl)CCl)(OCC(Cl)CCl)OCC(Cl)CCl` (centres undefined), the LD50 was 2830 mg/kg.
